Each molecule was assayed against T1, Ubiquitin carboxyl-terminal hydrolase 8 (Homo sapiens) (UniProt P40818) (assay: Inhibition of N-terminal His-6 tagged USP8 (734 to 1110 residues) (unknown origin) expressed in Escherichia coli BL21 (DE3) cells at 10 nM measured after 3 hrs by fluorescence based Plate reader method relative to control). Conditions: values are per cent of control.
T1 sequence (whole entry): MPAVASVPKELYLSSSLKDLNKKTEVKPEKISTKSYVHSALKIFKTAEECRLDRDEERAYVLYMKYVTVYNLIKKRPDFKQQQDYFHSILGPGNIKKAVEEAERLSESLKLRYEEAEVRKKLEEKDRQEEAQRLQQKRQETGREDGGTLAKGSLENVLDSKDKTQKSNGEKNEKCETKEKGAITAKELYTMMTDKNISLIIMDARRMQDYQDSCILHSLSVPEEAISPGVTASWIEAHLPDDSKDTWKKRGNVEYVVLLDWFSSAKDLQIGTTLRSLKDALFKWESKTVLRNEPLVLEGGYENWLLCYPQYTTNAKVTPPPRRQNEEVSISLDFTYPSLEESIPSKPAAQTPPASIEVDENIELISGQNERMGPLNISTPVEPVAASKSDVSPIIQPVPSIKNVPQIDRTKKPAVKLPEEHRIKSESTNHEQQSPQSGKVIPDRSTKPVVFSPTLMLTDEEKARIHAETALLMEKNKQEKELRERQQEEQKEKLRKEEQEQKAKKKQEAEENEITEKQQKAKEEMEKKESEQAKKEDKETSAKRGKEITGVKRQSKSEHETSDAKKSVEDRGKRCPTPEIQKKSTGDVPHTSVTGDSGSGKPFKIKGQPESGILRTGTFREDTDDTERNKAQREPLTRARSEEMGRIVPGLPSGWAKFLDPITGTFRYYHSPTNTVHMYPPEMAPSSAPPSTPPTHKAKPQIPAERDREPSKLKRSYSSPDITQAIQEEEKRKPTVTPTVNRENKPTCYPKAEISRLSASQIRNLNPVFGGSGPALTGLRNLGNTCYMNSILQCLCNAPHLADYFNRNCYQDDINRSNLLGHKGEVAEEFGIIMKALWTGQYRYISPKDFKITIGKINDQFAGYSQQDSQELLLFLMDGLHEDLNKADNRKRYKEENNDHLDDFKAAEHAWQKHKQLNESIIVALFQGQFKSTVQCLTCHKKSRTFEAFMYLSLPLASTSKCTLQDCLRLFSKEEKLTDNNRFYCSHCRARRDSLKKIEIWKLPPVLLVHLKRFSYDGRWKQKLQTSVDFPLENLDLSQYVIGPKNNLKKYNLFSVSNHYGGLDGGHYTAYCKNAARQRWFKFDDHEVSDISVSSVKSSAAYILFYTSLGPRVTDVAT

| residual activity [%] | Compound |
| --- | --- |
| 91.4 | COc1cc(F)cc(-c2nc3c([nH]2)C(=O)c2ccccc2C3=O)c1 |
| 66.3 | O=C1c2ccccc2C(=O)c2oc(-c3cccc(Cl)c3)nc21 |
| 63.6 | Cc1cccc(-c2nc3c(o2)C(=O)c2ccccc2C3=O)c1 |
| 40.1 | O=C1c2ccccc2C(=O)c2oc(-c3cccc(F)c3F)nc21 |
| 92.5 | O=C1c2ccccc2C(=O)c2[nH]c(-c3ccccc3)nc21 |
| 36.6 | O=C1c2ccccc2C(=O)c2oc(-c3c(F)ccc(F)c3F)nc21 |
| 43.1 | O=C1c2ccccc2C(=O)c2oc(-c3ccccc3Cl)nc21 |
| 44.5 | O=C1c2ccccc2C(=O)c2oc(-c3cc(Cl)ccc3Cl)nc21 |
| 37.2 | COc1cc(F)cc(-c2nc3c(o2)C(=O)c2ccccc2C3=O)c1 |
| 76.4 | CN1CCN(CCOc2cccc(-c3nc4c(o3)C(=O)c3ccccc3C4=O)c2)CC1 |
| 58.8 | CN1CCN(CCOc2cc(Cl)cc(-c3nc4c(o3)C(=O)c3ccccc3C4=O)c2)CC1 |
| 42.6 | COc1cccc(-c2nc3c(o2)C(=O)c2ccccc2C3=O)c1F |
| 51.1 | O=C1c2ccccc2C(=O)c2oc(-c3ccccc3[N+](=O)[O-])nc21 |
| 47.1 | COc1ccc(Cl)c(-c2nc3c(o2)C(=O)c2ccccc2C3=O)c1 |
| 72.2 | COc1cc(OC)cc(-c2nc3c(o2)C(=O)c2ccccc2C3=O)c1 |
| 95.3 | COc1ccc2c(c1)C(=O)c1nc(-c3cccc(OCCN(C)C)c3)[nH]c1C2=O |
| 55.9 | O=C1c2ccccc2C(=O)c2oc(-c3ccc(Cl)cc3)nc21 |
| 61.1 | COc1ccc(F)c(-c2nc3c(o2)C(=O)c2ccccc2C3=O)c1 |
| 41.9 | O=C1c2ccccc2C(=O)c2oc(-c3cccc([N+](=O)[O-])c3)nc21 |
| 63.6 | Cc1ccccc1-c1nc2c(o1)C(=O)c1ccccc1C2=O |

These molecules were tested against T1, Ubiquitin carboxyl-terminal hydrolase 8 (Homo sapiens) (assay: Inhibition of N-terminal His-6 tagged USP8 (734 to 1110 residues) (unknown origin) expressed in Escherichia coli BL21 (DE3) cells at 100 nM measured after 3 hrs by fluorescence based Plate reader method relative to control). Conditions: values are per cent of control.

| residual activity [%] | Compound |
| --- | --- |
| 85.2 | COc1cc(F)cc(-c2nc3c([nH]2)C(=O)c2ccccc2C3=O)c1 |
| 49.3 | O=C1c2ccccc2C(=O)c2oc(-c3cccc(Cl)c3)nc21 |
| 40.9 | Cc1cccc(-c2nc3c(o2)C(=O)c2ccccc2C3=O)c1 |
| 22.7 | O=C1c2ccccc2C(=O)c2oc(-c3cccc(F)c3F)nc21 |
| 92.5 | O=C1c2ccccc2C(=O)c2[nH]c(-c3ccccc3)nc21 |
| 21.9 | O=C1c2ccccc2C(=O)c2oc(-c3c(F)ccc(F)c3F)nc21 |
| 20.8 | O=C1c2ccccc2C(=O)c2oc(-c3ccccc3Cl)nc21 |
| 32.2 | O=C1c2ccccc2C(=O)c2oc(-c3cc(Cl)ccc3Cl)nc21 |
| 17.6 | COc1cc(F)cc(-c2nc3c(o2)C(=O)c2ccccc2C3=O)c1 |
| 53.6 | CN1CCN(CCOc2cccc(-c3nc4c(o3)C(=O)c3ccccc3C4=O)c2)CC1 |
| 27.9 | CN1CCN(CCOc2cc(Cl)cc(-c3nc4c(o3)C(=O)c3ccccc3C4=O)c2)CC1 |
| 25.5 | COc1cccc(-c2nc3c(o2)C(=O)c2ccccc2C3=O)c1F |
| 21.6 | O=C1c2ccccc2C(=O)c2oc(-c3ccccc3[N+](=O)[O-])nc21 |
| 24 | COc1ccc(Cl)c(-c2nc3c(o2)C(=O)c2ccccc2C3=O)c1 |
| 52.2 | COc1cc(OC)cc(-c2nc3c(o2)C(=O)c2ccccc2C3=O)c1 |
| 99.6 | COc1ccc2c(c1)C(=O)c1nc(-c3cccc(OCCN(C)C)c3)[nH]c1C2=O |
| 22.5 | O=C1c2ccccc2C(=O)c2oc(-c3ccc(Cl)cc3)nc21 |
| 33.1 | COc1ccc(F)c(-c2nc3c(o2)C(=O)c2ccccc2C3=O)c1 |
| 29.4 | O=C1c2ccccc2C(=O)c2oc(-c3cccc([N+](=O)[O-])c3)nc21 |
| 38.1 | Cc1ccccc1-c1nc2c(o1)C(=O)c1ccccc1C2=O |

The molecules below were run against T2, Ubiquitin thioesterase OTUB1 (Homo sapiens, UniProt Q96FW1) (assay: Inhibition of N-terminal His-6 tagged OTUB1 (40 to 271 residues) (unknown origin) expressed in Escherichia coli BL21 (DE3) cells at 100 nM using Ub-Rho measured after 0.5 to 3 hrs by fluorescence based Plate reader method relative to control). Conditions: time 0.5-3 hrs, values are per cent of control.
T2 sequence (Q96FW1 whole entry, the tested form may be a part): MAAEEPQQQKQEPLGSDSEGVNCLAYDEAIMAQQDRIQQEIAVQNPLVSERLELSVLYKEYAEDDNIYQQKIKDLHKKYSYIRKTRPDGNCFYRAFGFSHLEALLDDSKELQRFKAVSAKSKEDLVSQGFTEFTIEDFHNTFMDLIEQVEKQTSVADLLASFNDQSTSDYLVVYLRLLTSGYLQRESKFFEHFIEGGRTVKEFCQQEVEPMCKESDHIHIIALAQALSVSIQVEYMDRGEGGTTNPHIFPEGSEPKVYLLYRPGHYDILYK

| residual activity [%] | Compound |
| --- | --- |
| 77.9 | COc1cc(F)cc(-c2nc3c([nH]2)C(=O)c2ccccc2C3=O)c1 |
| 34.7 | O=C1c2ccccc2C(=O)c2oc(-c3cccc(Cl)c3)nc21 |
| 49.2 | Cc1cccc(-c2nc3c(o2)C(=O)c2ccccc2C3=O)c1 |
| 19.8 | O=C1c2ccccc2C(=O)c2oc(-c3cccc(F)c3F)nc21 |
| 78.3 | O=C1c2ccccc2C(=O)c2[nH]c(-c3ccccc3)nc21 |
| 15.6 | O=C1c2ccccc2C(=O)c2oc(-c3c(F)ccc(F)c3F)nc21 |
| 25.1 | O=C1c2ccccc2C(=O)c2oc(-c3ccccc3Cl)nc21 |
| 25.2 | O=C1c2ccccc2C(=O)c2oc(-c3cc(Cl)ccc3Cl)nc21 |
| 25.1 | COc1cc(F)cc(-c2nc3c(o2)C(=O)c2ccccc2C3=O)c1 |
| 36.9 | CN1CCN(CCOc2cccc(-c3nc4c(o3)C(=O)c3ccccc3C4=O)c2)CC1 |
| 36.3 | CN1CCN(CCOc2cc(Cl)cc(-c3nc4c(o3)C(=O)c3ccccc3C4=O)c2)CC1 |
| 22.4 | COc1cccc(-c2nc3c(o2)C(=O)c2ccccc2C3=O)c1F |
| 19 | O=C1c2ccccc2C(=O)c2oc(-c3ccccc3[N+](=O)[O-])nc21 |
| 25.8 | COc1ccc(Cl)c(-c2nc3c(o2)C(=O)c2ccccc2C3=O)c1 |
| 48.1 | COc1cc(OC)cc(-c2nc3c(o2)C(=O)c2ccccc2C3=O)c1 |
| 77.2 | COc1ccc2c(c1)C(=O)c1nc(-c3cccc(OCCN(C)C)c3)[nH]c1C2=O |
| 34.2 | O=C1c2ccccc2C(=O)c2oc(-c3ccc(Cl)cc3)nc21 |
| 31.2 | COc1ccc(F)c(-c2nc3c(o2)C(=O)c2ccccc2C3=O)c1 |
| 18.9 | O=C1c2ccccc2C(=O)c2oc(-c3cccc([N+](=O)[O-])c3)nc21 |
| 48.4 | Cc1ccccc1-c1nc2c(o1)C(=O)c1ccccc1C2=O |

The molecules below were run against T2, Ubiquitin thioesterase OTUB1 (assay: Inhibition of N-terminal His-6 tagged OTUB1 (40 to 271 residues) (unknown origin) expressed in Escherichia coli BL21 (DE3) cells at 10 nM using Ub-Rho measured after 0.5 to 3 hrs by fluorescence based Plate reader method relative to control). Conditions: time 0.5-3 hrs, values are per cent of control.

| residual activity [%] | Compound |
| --- | --- |
| 84.8 | COc1cc(F)cc(-c2nc3c([nH]2)C(=O)c2ccccc2C3=O)c1 |
| 60.4 | O=C1c2ccccc2C(=O)c2oc(-c3cccc(Cl)c3)nc21 |
| 63.1 | Cc1cccc(-c2nc3c(o2)C(=O)c2ccccc2C3=O)c1 |
| 50.2 | O=C1c2ccccc2C(=O)c2oc(-c3cccc(F)c3F)nc21 |
| 84.3 | O=C1c2ccccc2C(=O)c2[nH]c(-c3ccccc3)nc21 |
| 40.7 | O=C1c2ccccc2C(=O)c2oc(-c3c(F)ccc(F)c3F)nc21 |
| 60 | O=C1c2ccccc2C(=O)c2oc(-c3ccccc3Cl)nc21 |
| 52.7 | O=C1c2ccccc2C(=O)c2oc(-c3cc(Cl)ccc3Cl)nc21 |
| 62.8 | COc1cc(F)cc(-c2nc3c(o2)C(=O)c2ccccc2C3=O)c1 |
| 66.8 | CN1CCN(CCOc2cccc(-c3nc4c(o3)C(=O)c3ccccc3C4=O)c2)CC1 |
| 77.3 | CN1CCN(CCOc2cc(Cl)cc(-c3nc4c(o3)C(=O)c3ccccc3C4=O)c2)CC1 |
| 52.9 | COc1cccc(-c2nc3c(o2)C(=O)c2ccccc2C3=O)c1F |
| 47.2 | O=C1c2ccccc2C(=O)c2oc(-c3ccccc3[N+](=O)[O-])nc21 |
| 63.2 | COc1ccc(Cl)c(-c2nc3c(o2)C(=O)c2ccccc2C3=O)c1 |
| 83.6 | COc1cc(OC)cc(-c2nc3c(o2)C(=O)c2ccccc2C3=O)c1 |
| 78.4 | COc1ccc2c(c1)C(=O)c1nc(-c3cccc(OCCN(C)C)c3)[nH]c1C2=O |
| 61.3 | O=C1c2ccccc2C(=O)c2oc(-c3ccc(Cl)cc3)nc21 |
| 75 | COc1ccc(F)c(-c2nc3c(o2)C(=O)c2ccccc2C3=O)c1 |
| 47.8 | O=C1c2ccccc2C(=O)c2oc(-c3cccc([N+](=O)[O-])c3)nc21 |
| 66.4 | Cc1ccccc1-c1nc2c(o1)C(=O)c1ccccc1C2=O |
